Reference: patent US20020137781A1, “Preparation and use of enantiomer-pure 2,4-disubstituted oxazolines” (priority 1999, published 2002)

Assays:
Heliothis virescens [1] = test: Ovicidal effect on Heliothis virescens; assay type: in vivo; conditions: 400 ppm in acetone/water, eggs on filter paper immersed, after 6 days
Procedure: Eggs of Heliothis virescens deposited on filter paper are immersed briefly in a test solution comprising 400 ppm of the active ingredient to be tested in acetone/water. After the test solution has dried, the eggs are incubated in Petri dishes. After 6 days, the percentage hatching rate of the eggs is compared with that for untreated controls (% reduction in hatching rate).

Diabrotica balteata = test: Effect on Diabrotica balteata larvae; assay type: in vivo; conditions: 400 ppm spray on corn seedlings, second instar larvae, six days
Procedure: Corn seedlings are sprayed with an aqueous emulsion spray mixture containing 400 ppm of active ingredient. After drying of the spray deposit, the corn seedlings are colonised with 10 second instar larvae of Diabrotica balteata and placed in a plastic container. Six days later they are evaluated. The percentage reduction of the population (% response) is determined by comparing the number of dead larvae on the treated plants with those on the untreated plants.

Heliothis virescens [2] = test: Effect on Heliothis virescens caterpillars; assay type: in vivo; conditions: 400 ppm spray on soya plants, first-instar larvae, six days
Procedure: (§1) Young soya plants are sprayed with an aqueous emulsion spray mixture containing 400 ppm of active ingredient. After drying of the spray deposit, the soya plants are colonised with 10 first-instar larvae of Heliothis virescens and placed in a plastic container. Six days later they are evaluated. The percentage reduction of the population and percentage reduction in feeding damage (% response) is determined by comparing the number of dead larvae and the extent of feeding damage on the treated plants with those on the untreated plants.

Plutella xylostella = test: Effect against Plutella xylostella caterpillars; assay type: in vivo; conditions: 400 ppm spray on cabbage plants, third-instar caterpillars, three days
Procedure: as §1, with “cabbage” for “soya”, “After” for “After drying of”, “coating has dried on,” for “deposit,”, “third-instar caterpillars” for “first-instar larvae”, “Plutella xylostella” for “Heliothis virescens”, “Three” for “Six”

Tetranychus urticae = test: Ovicidal effect on Tetranychus urticae; assay type: in vivo; conditions: 400 ppm spray on bean plants colonised with eggs, 6 days at 25° C.
Procedure: Young bean plants are colonised with females of Tetranychus urticae, which are removed again after 24 hours. The plants colonised with eggs are sprayed with an aqueous emulsion spray mixture containing 400 ppm of active ingredient. The plants are incubated for 6 days at 25° C. and then evaluated. The percentage reduction of the population (% response) is determined by comparing the total number of dead eggs, larvae, and adults on the treated plants with those on the untreated plants.

Panonychus ulmi = test: Effect against Panonychus ulmi (resistant to organophosphates und carbaryl); assay type: in vivo; conditions: 400 ppm spray on apple seedlings, after 14 days
Procedure: Apple seedlings are colonised with adult females of Panonychus ulmi. After seven days, the infected plants are sprayed with an aqueous emulsion spray mixture containing 400 ppm of the test compound until they are dripping wet, and cultivated in the greenhouse. After 14 days, they are evaluated. The percentage reduction of the population (% response) is determined by comparing the number of dead spider mites on the treated plants with those on the untreated plants.

Nilaparvata lugens = test: Effect against Nilaparvata lugens; assay type: in vivo; conditions: 400 ppm spray on rice plants, second and third instar larvae, 21 days
Procedure: Rice plants are sprayed with an aqueous emulsion spray mixture containing 400 ppm of active ingredient. After the spray coating has dried on, the rice plants are colonised with second and third instar larvae of plant and leaf-hoppers. 21 days later they are evaluated. The percentage reduction of the population (% response) is determined by comparing the number of surviving plant and leaf-hoppers on the treated plants with those on the untreated plants.

Spodoptera littoralis = test: Effect on Spodoptera littoralis; assay type: in vivo; conditions: 400 ppm spray on soybean plants, third-instar larvae, three days
Procedure: Young soybean plants are sprayed with an aqueous emulsion spray mixture containing 400 ppm of active ingredient. After the spray deposit has dried, the plants are colonised with 10 third-instar larvae of Spodoptera littoralis and placed in a plastic container. Three days later they are evaluated. The percentage reduction of the population and of the feeding damage (% response) is determined by comparing the total number of dead caterpillars and the feeding damage on the treated plants with those on the untreated plants.

Aphis craccivora = test: Effect against Aphis craccivora; assay type: in vivo; conditions: 400 ppm spray on pea seedlings, 20° C., 3 and 6 days
Procedure: Pea seedlings are infected with Aphis craccivora, subsequently sprayed with a spray mixture containing 400 ppm of active ingredient, and then incubated at 20° C. 3 and 6 days later, they are evaluated. The percentage reduction of the population (% response) is determined by comparing the number of dead aphids on the treated plants with those on the untreated plants.

Crocidolomia binotalis = test: Effect against Crocidolomia binotalis; assay type: in vivo; conditions: 400 ppm spray on cabbage plants, third-instar caterpillars, three days
Procedure: Young cabbage plants are sprayed with an aqueous emulsion spray mixture containing 400 ppm of active ingredient. After the spray coating has dried on, the cabbage plants are colonised with 10 third-instar caterpillars of Crocidolomia binotalis and placed in a plastic container. Three days later they are evaluated. The percentage reduction of the population and of the feeding damage (% response) is determined by comparing the total number of dead caterpillars and the feeding damage on the treated plants with those on the untreated plants.

Bemisia tabaci = test: Effect against Bemisia tabaci; assay type: in vivo; conditions: 400 ppm spray on dwarf bean plants with nymphs, after a further 14 days
Source text: Dwarf bean plants are placed in gauze cages and colonised with adults of Bemisia tabaci. Following oviposition, all adults are removed. Ten days later, the plants and the nymphs thereon are sprayed with an aqueous emulsion spray mixture containing 400 ppm of the active ingredient. After a further 14 days, the percentage hatching rate of the eggs is compared with that of untreated controls.

Dermanyssus gallinae = test: Comparative in vitro effect on Dermanyssus gallinae
Procedure: 15 fed adult female mites of the genus Dermanyssus gallinae fixed on a plastic adhesive film are brought into contact with 50 μl of an aqueous suspension or emulsion of the test substance. The test is carried out with concentrations of 32, 10, 3.2, 1.0, 0.32 to 0.1 ppm. After drying, the film is stuck onto a glass disc. This creates a kind of air bubble around each mite, the lower surface of which is formed by the glass disc and the upper surface by a bulging of the adhesive film. This bubble contains sufficient air for the mite to avoid suffocating. After 5 days, the effect of the test substance is evaluated with the aid of a stereo-microscope by assessing the effect on mortality, egg deposition, egg quality, hatching rate, pupation rate, and development of protonymphs according to the following 4 criteria:
1. if 9 to 10 mites are dead, this indicates a lethal effect (M);
3. if 2 or more mites survive and produce eggs, but no larvae hatch from these eggs and no protonymphs develop, this indicates a development-inhibiting effect (H);
4. if 2 or more mites survive and lay the usual number of normal eggs, from which larvae hatch and develop into protonymphs, this indicates no activity.

Fc1cccc(F)c1C1=NC(c2ccc(-c3ccc(C(F)(F)F)cc3)cc2)CO1 (single isomer, unassigned) [1.1, 2-(2,6-difluoro-phenyl)-4-(4′-trifluoromethylbiphenyl-4-yl)-4,5-dihydro-oxazole]
% reduction in hatching rate (response) (Heliothis virescens [1]): more than 80% | percentage reduction of the population (% response) (Diabrotica balteata): more than 80% | percentage reduction of the population and percentage reduction in feeding damage (% response) (Heliothis virescens [2]): more than 80% | percentage reduction of the population and percentage reduction in feeding damage (% response) (Plutella xylostella): more than 80% | percentage reduction of the population (% response) (Tetranychus urticae): more than 80% | percentage reduction of the population (% response) (Panonychus ulmi): more than 80% | percentage reduction of the population (% response) (Nilaparvata lugens): more than 80% | percentage reduction of the population and of the feeding damage (% response) (Spodoptera littoralis): more than 80% | percentage reduction of the population (% response) (Aphis craccivora): more than 80% | percentage reduction of the population and of the feeding damage (% response) (Crocidolomia binotalis): more than 80% | response (percentage hatching rate of the eggs vs untreated controls) (Bemisia tabaci): more than 80% | concentration that completely inhibits the development of protonymphs (Dermanyssus gallinae; after 5 days): ≤ 0.0064 ppm | Type of activity (Dermanyssus gallinae; at the EC100 of the same table line, listed as Enantiomer A): 1 | EC100 (minimum dosage to reach 100% mortality) (Dermanyssus gallinae; fed adult female mites, evaluated after 5 days, listed as Enantiomer A): 0.0064 ppm | activity relative to enantiomer B (Dermanyssus gallinae; ratio of EC100): 3000-5000 times | activity relative to the racemate (Dermanyssus gallinae; ratio of EC100): more than 30 times
